We go through 39 molecules from patent US20230416248A1, “COMPOUNDS AND USES THEREOF” (Foghorn Therapeutics Inc., priority 2020, published 2023).

In one experiment the target is T1, BRM (Homo sapiens, UniProt P51531).
T1 construct: made in house; host or cells: High Five insect cells
Put plainly: ATPase catalytic activity of BRM, ADP-Glo in vitro biochemical assay. To be noted: for IC50: ADP-Glo ATPase assay, 30 nM BRM, 400 μM ATP; for Ratio*: ratio BRG1 IC50 / BRM IC50. The procedure, abridged: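 ADP-Glo luminescence, after depletion of leftover ATP and conversion of ADP, reported the activity. The 1 h room-temperature reaction held 400 μM ATP, 20 nM salmon sperm DNA and 30 nM BRM in 20 mM Tris pH 8, 20 mM MgCl2, 50 mM NaCl, 0.1% Tween-20, 1 mM DTT.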
(In ADP-Glo the light output rises with the ADP produced.)

The target of another experiment is T2, BRG-1 (Homo sapiens, UniProt P51532).
T2 construct: made in house; host or cells: High Five insect cells
T2 sequence (P51532 whole entry): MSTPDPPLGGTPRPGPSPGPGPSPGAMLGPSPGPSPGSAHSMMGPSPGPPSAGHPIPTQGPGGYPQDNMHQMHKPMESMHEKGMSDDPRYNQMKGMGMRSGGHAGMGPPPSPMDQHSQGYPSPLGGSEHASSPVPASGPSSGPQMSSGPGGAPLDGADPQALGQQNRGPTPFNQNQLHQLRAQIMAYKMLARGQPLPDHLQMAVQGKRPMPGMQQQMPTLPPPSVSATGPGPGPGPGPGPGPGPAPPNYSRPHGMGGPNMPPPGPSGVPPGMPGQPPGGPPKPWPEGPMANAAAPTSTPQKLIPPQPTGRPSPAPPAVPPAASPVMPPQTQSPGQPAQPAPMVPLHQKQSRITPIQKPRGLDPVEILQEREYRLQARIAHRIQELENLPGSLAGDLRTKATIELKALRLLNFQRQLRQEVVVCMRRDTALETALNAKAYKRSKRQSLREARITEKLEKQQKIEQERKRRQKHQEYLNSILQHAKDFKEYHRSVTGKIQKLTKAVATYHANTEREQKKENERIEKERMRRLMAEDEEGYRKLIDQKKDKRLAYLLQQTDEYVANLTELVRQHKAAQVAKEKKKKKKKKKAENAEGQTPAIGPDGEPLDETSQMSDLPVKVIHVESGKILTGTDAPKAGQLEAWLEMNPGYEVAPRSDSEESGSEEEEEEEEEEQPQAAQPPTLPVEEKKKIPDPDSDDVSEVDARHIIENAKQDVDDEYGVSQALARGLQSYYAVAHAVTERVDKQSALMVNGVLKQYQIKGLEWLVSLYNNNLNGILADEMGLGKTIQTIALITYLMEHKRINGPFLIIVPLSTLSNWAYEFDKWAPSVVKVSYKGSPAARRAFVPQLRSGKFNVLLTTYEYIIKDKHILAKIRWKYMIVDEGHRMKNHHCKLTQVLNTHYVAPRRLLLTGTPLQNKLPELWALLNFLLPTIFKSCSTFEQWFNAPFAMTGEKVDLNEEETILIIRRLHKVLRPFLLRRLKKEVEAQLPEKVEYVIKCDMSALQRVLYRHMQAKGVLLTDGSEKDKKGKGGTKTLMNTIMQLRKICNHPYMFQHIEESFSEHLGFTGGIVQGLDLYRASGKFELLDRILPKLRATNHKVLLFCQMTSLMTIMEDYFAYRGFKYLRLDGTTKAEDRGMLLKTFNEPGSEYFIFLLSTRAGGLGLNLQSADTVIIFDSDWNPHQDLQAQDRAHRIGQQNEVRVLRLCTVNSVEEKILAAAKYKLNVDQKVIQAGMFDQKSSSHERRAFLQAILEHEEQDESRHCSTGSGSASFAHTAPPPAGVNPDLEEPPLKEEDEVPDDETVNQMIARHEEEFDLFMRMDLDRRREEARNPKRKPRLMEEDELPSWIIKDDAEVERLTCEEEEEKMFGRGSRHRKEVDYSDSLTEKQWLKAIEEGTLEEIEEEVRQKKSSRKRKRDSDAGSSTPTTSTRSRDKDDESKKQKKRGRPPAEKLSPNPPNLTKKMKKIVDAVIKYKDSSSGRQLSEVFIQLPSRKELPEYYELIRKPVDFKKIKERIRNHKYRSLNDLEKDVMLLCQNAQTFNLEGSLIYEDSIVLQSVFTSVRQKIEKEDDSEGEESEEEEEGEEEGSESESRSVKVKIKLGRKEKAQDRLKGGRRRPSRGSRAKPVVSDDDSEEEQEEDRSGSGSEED
As to the kind of experiment: ATPase catalytic activity of BRG-1, ADP-Glo in vitro biochemical assay. To be noted: ADP-Glo ATPase assay, 30 nM BRG-1, 400 μM ATP; read-out: BRG1 IC50. The essentials:
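In this in vitro format, BRG-1 hydrolysis product ADP is detected via a two-step ADP-Glo workup (ATP removal, then ADP-to-ATP conversion with luciferase detection) followed by a luminescence read.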

The structures appear in SMILES notation.

What is called IC50 is the point on the concentration scale where inhibition reaches its midpoint.

T1 sequence (P51531 whole entry): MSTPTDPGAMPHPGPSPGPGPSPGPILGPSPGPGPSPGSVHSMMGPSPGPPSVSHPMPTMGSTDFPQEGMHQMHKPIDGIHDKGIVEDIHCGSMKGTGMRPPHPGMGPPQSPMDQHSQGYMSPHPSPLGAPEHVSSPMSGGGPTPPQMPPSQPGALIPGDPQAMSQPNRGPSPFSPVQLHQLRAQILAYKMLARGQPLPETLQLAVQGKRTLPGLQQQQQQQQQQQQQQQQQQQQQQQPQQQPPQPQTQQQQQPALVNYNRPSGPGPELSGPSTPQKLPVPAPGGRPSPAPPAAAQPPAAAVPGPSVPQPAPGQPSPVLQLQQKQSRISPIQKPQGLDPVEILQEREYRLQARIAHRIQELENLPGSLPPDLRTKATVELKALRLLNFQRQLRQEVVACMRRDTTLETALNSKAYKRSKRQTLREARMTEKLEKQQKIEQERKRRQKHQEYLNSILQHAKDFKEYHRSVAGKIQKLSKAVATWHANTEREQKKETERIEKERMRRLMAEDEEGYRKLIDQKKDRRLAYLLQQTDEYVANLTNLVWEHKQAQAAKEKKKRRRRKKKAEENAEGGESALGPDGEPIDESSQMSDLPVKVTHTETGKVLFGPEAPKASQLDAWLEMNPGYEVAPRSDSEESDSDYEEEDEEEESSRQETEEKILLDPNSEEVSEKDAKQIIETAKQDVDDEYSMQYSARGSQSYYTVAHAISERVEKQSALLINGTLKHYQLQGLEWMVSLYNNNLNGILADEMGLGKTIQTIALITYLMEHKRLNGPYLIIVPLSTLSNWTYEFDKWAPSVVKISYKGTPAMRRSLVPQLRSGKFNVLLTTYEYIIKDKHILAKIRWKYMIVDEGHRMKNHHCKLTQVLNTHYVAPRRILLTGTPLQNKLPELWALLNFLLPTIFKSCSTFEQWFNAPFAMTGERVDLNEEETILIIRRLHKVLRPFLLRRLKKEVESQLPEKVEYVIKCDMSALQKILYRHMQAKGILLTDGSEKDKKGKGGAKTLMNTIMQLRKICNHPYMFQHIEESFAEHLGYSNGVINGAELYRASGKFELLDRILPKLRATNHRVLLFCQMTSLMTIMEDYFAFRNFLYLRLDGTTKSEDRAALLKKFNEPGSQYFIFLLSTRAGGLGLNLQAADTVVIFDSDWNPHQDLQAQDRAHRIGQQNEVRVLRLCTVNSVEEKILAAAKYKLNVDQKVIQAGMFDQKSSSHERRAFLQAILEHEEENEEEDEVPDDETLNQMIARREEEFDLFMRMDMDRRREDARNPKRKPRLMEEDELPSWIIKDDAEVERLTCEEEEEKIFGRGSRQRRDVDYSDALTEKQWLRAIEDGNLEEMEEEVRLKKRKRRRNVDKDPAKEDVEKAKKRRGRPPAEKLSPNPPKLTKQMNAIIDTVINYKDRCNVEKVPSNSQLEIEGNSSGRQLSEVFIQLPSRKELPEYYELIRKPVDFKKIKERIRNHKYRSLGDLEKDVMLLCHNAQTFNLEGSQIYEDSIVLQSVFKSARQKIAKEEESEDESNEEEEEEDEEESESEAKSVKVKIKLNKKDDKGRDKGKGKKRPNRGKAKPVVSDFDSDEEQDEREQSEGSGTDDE

Consider `O=C(NCc1cc2cc(N3CCOc4ccc(C5CC5)nc43)ccc2cn1)c1ccc2c(c1)S(=O)(=O)CCOC2` [Compound 729], for which the half-maximal inhibitory concentration (IC50) was 44.6 nM at BRM and 1920 nM on BRG-1. Further, on BRM, the “Ratio*” value was 42.98.
With `O=C(NCc1cc2nc(N3CCCc4ccc(C5CCC5)nc43)ccc2cn1)c1ccc2c(c1)S(=O)(=O)CCOC2` [Compound 730], the IC50 was 16.4 nM on BRM and 814 nM at BRG-1. Moreover, the “Ratio*” value on BRM was found to be 49.65.
For `COc1cc(C)nc2c1CCCN2c1ccc2cnc(CNC(=O)c3ccc4c(c3)S(=O)(=O)CCOC4)cc2n1` [Compound 732], on BRM, the IC50 is 9.3 nM and the “Ratio*” value is listed as 9.97. The IC50 on BRG-1 was determined as 92.5 nM.
For `COc1cccc2c1CCCN2c1ccc2cnc(CNC(=O)c3cnc4c(c3)S(=O)(=O)[C@@H](C)COC4)cc2n1` [Compound 733], on BRM, the IC50 was found to be 9.4 nM and the “Ratio*” value was determined as 8.96. Besides, at BRG-1, the IC50 came out at 84.2 nM.
As to `Cc1cnc2c(c1)C1(CCN2c2ccc3cnc(CNC(=O)c4ccc5c(c4)S(=O)(=O)CCOC5)cc3n2)CC1` [Compound 734], the IC50 against BRM was determined as 6.3 nM; at BRG-1 it was 86.2 nM. Further, the “Ratio*” value at BRM is 13.67.
Take `O=C(NCc1cc2nc(N3CCCc4ccc(OCC5CCO5)cc43)ccc2cn1)c1ccc2c(c1)S(=O)(=O)CCOC2` (stereo not drawn) [Compound 735]: at BRM, half-maximal inhibition (IC50) was put at 8.2 nM and the “Ratio*” value is on record as 13.49. The IC50 on BRG-1 came out at 110 nM.
On the same counts, the results for `O=C(NCc1cc2nc(N3CCCc4cccc(Cl)c43)ccc2cn1)c1ccc2c(c1)S(=O)(=O)CCOC2` [Compound 736] are 1140 nM, 3.42 and 3900 nM.
Consider `O=C(NCc1cc2nc(N3CCOc4cc(F)cnc43)ccc2cn1)c1ccc2c(c1)S(=O)(=O)CCOC2` [Compound 737], for which, at BRM, the IC50 is 10.4 nM and the “Ratio*” value is 21.91. In addition, at BRG-1, the IC50 was 227 nM.
Take `C[C@H]1COCc2ccc(C(=O)NCc3cc4nc(N5CCOc6cc(F)cnc65)ccc4cn3)cc2S1(=O)=O` [Compound 738]: at BRM, the IC50 amounted to 13.2 nM and the “Ratio*” value was 32.33. Moreover, the IC50 at BRG-1 came to 428 nM.
Regarding `O=C(NCc1cc2nc(N3CCOc4cc(C5CC5)ncc43)ccc2cn1)c1ccc2c(c1)S(=O)(=O)CCOC2` [Compound 739], on BRM, inhibition was half-maximal at 12.7 nM (IC50) and the “Ratio*” value was found to be 17.37. Moreover, the 50% inhibitory concentration (IC50) on BRG-1 is 221 nM.
Regarding `[2H]C1([2H])OC([2H])([2H])[C@H](C)S(=O)(=O)c2cc(C(=O)NCc3cc4nc(N5CCOc6cc(C)cnc65)ccc4cn3)ccc21` [Compound 741], on BRM, the IC50 is 6.6 nM and the “Ratio*” value was 14.12. Moreover, the IC50 on BRG-1 was found to be 93.4 nM.
`O=C(NCc1cc2nc(N3CCN(CC(F)F)c4cccnc43)ccc2cn1)c1ccc2c(c1)S(=O)(=O)CCOC2` [Compound 742]: the results for the IC50 on BRM and on BRG-1 were 24 nM and 478 nM, respectively. Besides, the “Ratio*” value on BRM amounted to 19.92.
The matching figures for `Cc1ccnc2c1CCN2c1ccc2cnc(CNC(=O)c3ccc4c(c3)S(=O)(=O)CCOC4)cc2n1` [Compound 743]: 27.5 nM, 120 nM and 4.35.
Regarding `O=C(NCc1cc2nc(N3CCn4ncc(C5CC5)c4C3)ccc2cn1)c1ccc2c(c1)S(=O)(=O)CCOC2` [Compound 744], the IC50 on BRM was 432 nM; at BRG-1, 3940 nM. Moreover, the “Ratio*” value on BRM was found to be 9.13.
`O=C(NCc1cc2nc(N3CCCc4ccc(OCC5(F)COC5)cc43)ccc2cn1)c1ccc2c(c1)S(=O)(=O)CCOC2` [Compound 745]: the half-maximal inhibitory concentration (IC50) against BRM amounted to 4.5 nM; on BRG-1, 27.9 nM. Further, the “Ratio*” value at BRM was 6.27.
For `O=C(NCc1cc2nc(N3CCCc4ccc(OC5CC5)nc43)ccc2cn1)c1ccc2c(c1)S(=O)(=O)CCOC2` [Compound 746], at BRM, it took 22.2 nM to reach half-maximal inhibition (IC50) and the “Ratio*” value is listed as 25.51. On BRG-1, the IC50 turned out to be 567 nM.
Turning to `O=C(NCc1cc2nc(N3CCCc4ccc(OCC5CCCO5)cc43)ccc2cn1)c1ccc2c(c1)S(=O)(=O)CCOC2` (stereo not drawn) [Compound 747], the IC50 at BRM was 8.8 nM; on BRG-1, 118 nM. For the same molecule, on BRM, the “Ratio*” value was found to be 13.42.
In the case of `Cc1cnc2c(c1)N(C1CC1)CCN2c1ccc2cnc(CNC(=O)c3ccc4c(c3)S(=O)(=O)CCOC4)cc2n1` [Compound 748], on BRM, the IC50 was 12.1 nM and the “Ratio*” value amounted to 12.75. Besides, the half-inhibitory concentration (IC50) at BRG-1 worked out at 154 nM.
As for `Cc1ccc2c(c1)OCCN2c1ccc2cnc(CNC(=O)c3cnc4c(c3)S(=O)(=O)[C@@H](C)COC4)cc2n1` [Compound 749], the IC50 on BRM amounted to 12.6 nM; on BRG-1 it was 209 nM. The “Ratio*” value on BRM came to 16.64.
On to `COc1cc(F)cc2c1CCCN2c1ccc2cnc(CNC(=O)c3ccc4c(c3)S(=O)(=O)CCOC4)cc2n1` [Compound 750], for which, at BRM, the IC50 came out at 4 nM and the “Ratio*” value worked out at 4.62. In addition, on BRG-1, the half-inhibitory concentration (IC50) amounted to 18.3 nM.
`O=C(NCc1cc2nc(N3CCOc4cc(F)c(C5CC5)nc43)ccc2cn1)c1ccc2c(c1)S(=O)(=O)CCOC2` [Compound 751]: on BRM, the half-maximal inhibitory concentration (IC50) was determined as 36.2 nM and the “Ratio*” value amounted to 63.48. Further, the IC50 on BRG-1 came out at 2300 nM.
In the case of `CC1(C)CCN(c2ccc3cnc(CNC(=O)c4ccc5c(c4)S(=O)(=O)CCOC5)cc3n2)c2ncccc21` [Compound 752], on BRM, the IC50 turned out to be 1040 nM and the “Ratio*” value is listed as 3.68. Besides, on BRG-1, the half-inhibitory concentration (IC50) came to 3810 nM.
For the molecule `O=C(NCc1cc2nc(N3CCOc4cc(C5CCC5)cnc43)ccc2cn1)c1ccc2c(c1)S(=O)(=O)CCOC2` [Compound 753], at BRM, the half-maximal inhibitory concentration (IC50) came out at 14.2 nM and the “Ratio*” value was 14.28. For the same molecule, on BRG-1, the half-maximal inhibitory concentration (IC50) amounted to 203 nM.
Take `O=C(NCc1cc2nc(N3CCOc4cc(N5CCCC5)cnc43)ccc2cn1)c1ccc2c(c1)S(=O)(=O)CCOC2` [Compound 754]: the 50% inhibitory concentration (IC50) at BRM was determined as 19.1 nM; on BRG-1 it was 192 nM. For the same molecule, at BRM, the “Ratio*” value was determined as 10.04.
With `O=C(NCc1cc2nc(N3CCOc4cnc(C5CC5)cc43)ccc2cn1)c1ccc2c(c1)S(=O)(=O)CCOC2` [Compound 755], on BRM, inhibition was half-maximal at 7.1 nM (IC50) and the “Ratio*” value amounted to 17.47. At BRG-1, the IC50 is 124 nM.
Consider `O=C(NCc1cc2nc(N3CCN(C4CC4)c4cc(C5CC5)cnc43)ccc2cn1)c1ccc2c(c1)S(=O)(=O)CCOC2` [Compound 756], for which the results for the IC50 against BRM and at BRG-1 were 15.1 nM and 176 nM, respectively. For the same molecule, the “Ratio*” value on BRM was found to be 11.62.
For the molecule `O=C(NCc1cc2nc(N3CCOc4cc(N5CCC(F)(F)C5)cnc43)ccc2cn1)c1ccc2c(c1)S(=O)(=O)CCOC2` [Compound 758], at BRM, inhibition was half-maximal at 35.6 nM (IC50) and the “Ratio*” value came to 14.23. Besides, the half-inhibitory concentration (IC50) on BRG-1 stood at 507 nM.
Turning to `O=C(NCc1cc2nc(N3CCCc4ccc(OCC5CCOC5)cc43)ccc2cn1)c1ccc2c(c1)S(=O)(=O)CCOC2` (stereo not drawn) [Compound 759], on BRM, the 50% inhibitory concentration (IC50) amounted to 5.3 nM and the “Ratio*” value is 9.97. Further, the IC50 at BRG-1 was determined as 53.3 nM.
For `O=C(NCc1cc2nc(N3CCOc4ccc(C5CC5)c(F)c43)ccc2cn1)c1ccc2c(c1)S(=O)(=O)CCOC2` [Compound 760], on BRM, the IC50 amounted to 8.8 nM and the “Ratio*” value turned out to be 7.05. For the same molecule, the concentration for half-maximal inhibition (IC50) on BRG-1 was 62.2 nM.
With `COc1cncc2c1CCCN2c1ccc2cnc(CNC(=O)c3ccc4c(c3)S(=O)(=O)CCOC4)cc2n1` [Compound 761], the half-maximal inhibitory concentration (IC50) on BRM was determined as 8.7 nM; at BRG-1, 67.9 nM. The “Ratio*” value on BRM was 7.77.
As to `CN(C)c1cnc2c(c1)OCCN2c1ccc2cnc(CNC(=O)c3ccc4c(c3)S(=O)(=O)CCOC4)cc2n1` [Compound 763], at BRM, the IC50 stood at 5.3 nM and the “Ratio*” value is 8.52. The IC50 at BRG-1 was 45.4 nM.
Take `Cc1cc(F)c2c(c1)OCCN2c1ccc2cnc(CNC(=O)c3ccc4c(c3)S(=O)(=O)CCOC4)cc2n1` [Compound 764]: the concentration for half-maximal inhibition (IC50) was 9.5 nM on BRM and 159 nM at BRG-1. Further, at BRM, the “Ratio*” value is 16.66.
As for `O=C(NCc1cc2nc(N3CCOc4cc(C5CC5)cc(F)c43)ccc2cn1)c1ccc2c(c1)S(=O)(=O)CCOC2` [Compound 765], the half-inhibitory concentration (IC50) was 23.5 nM against BRM and 284 nM on BRG-1. Further, the “Ratio*” value on BRM is reported as 12.08.
Turning to `O=C(NCc1cc2nc(N3CCOc4ccc(C56CC(C5)C6)nc43)ccc2cn1)c1ccc2c(c1)S(=O)(=O)CCOC2` [Compound 766], the 50% inhibitory concentration (IC50) at BRM amounted to 17.1 nM; at BRG-1, 179 nM. On BRM, the “Ratio*” value is on record as 10.47.
For the molecule `O=C(NCc1cc2nc(N3CCC(F)(F)c4cccnc43)ccc2cn1)c1ccc2c(c1)S(=O)(=O)CCOC2` [Compound 767], at BRM, the concentration for half-maximal inhibition (IC50) is 17.4 nM and the “Ratio*” value was 11.17. In addition, the IC50 at BRG-1 was found to be 194 nM.
The matching figures for `COc1cc2c(cn1)CCCN2c1ccc2cnc(CNC(=O)c3ccc4c(c3)S(=O)(=O)CCOC4)cc2n1` [Compound 768]: 10.7 nM, 11.76 and 126 nM.
For the molecule `C[C@@H]1CN(c2cccc(-c3ccc4cnc(CNC(=O)c5cnc6c(c5)S(=O)(=O)[C@@H](C)COC6)cc4c3)n2)C[C@H](C)O1` [Compound 769], at BRM, the IC50 was determined as 8.4 nM and the “Ratio*” value was found to be 3.16. Besides, the 50% inhibitory concentration (IC50) on BRG-1 amounted to 26.4 nM.
On to `Cc1nc2c(cc1F)OCCN2c1ccc2cnc(CNC(=O)c3ccc4c(c3)S(=O)(=O)CCOC4)cc2n1` [Compound 770], for which, at BRM, the half-maximal inhibitory concentration (IC50) was determined as 16.4 nM and the “Ratio*” value worked out at 20.67. The IC50 at BRG-1 is 339 nM.
On the same counts, the results for `COc1cc(C2CC2)nc2c1CCCN2c1ccc2cnc(CNC(=O)c3ccc4c(c3)S(=O)(=O)CCOC4)cc2n1` [Compound 771] are 10.5 nM, 16.35 and 172 nM.
